Test system: blood-glucose concentration
Assay: Decrease in blood-glucose concentration in rats after oral dose (Table 1; ED30 rats Table 2)
Format: in vivo
Conditions: Rattus norvegicus, po, p.os. 0.25 mg/kg, 1 h
From the text: The hypoglycemic activity of N-{4-[2-(pyrazole-1-carbonamide)-ethyl]-benzenesulphonyl}-ureas prepared according to the present invention can be noticed after their oral administration to mice, rats, rabbits and people and when determining the glucose concentration in blood with a known enzymatic method using glucose oxidase.
The exemplary comparison of effective doses (ED30) and the effect of oral dose size of the compounds prepared according to the present invention with Glibornuride, which is distinguished by its high effectiveness and good tolerance when administered to people, on the glucose concentration in the blood of rats, is given in Table 1.

Going from `O=C(NC1CCCCC1)NS(=O)(=O)c1ccc(CCNC(=O)n2cccn2)cc1` [compound 1] to `Cc1cn(C(=O)NCCc2ccc(S(=O)(=O)NC(=O)NC3CCCCC3)cc2)nc1C` [compound 7], the inhibition in vivo at 0.25 mg/kg falls from 12% to 11%.

Same assay, conditions: Rattus norvegicus, po, p.os. 0.25 mg/kg, 3 h

Compared with `O=C(NC1CCCCC1)NS(=O)(=O)c1ccc(CCNC(=O)n2cccn2)cc1` [compound 1], `Cc1cn(C(=O)NCCc2ccc(S(=O)(=O)NC(=O)NC3CCCCC3)cc2)nc1C` [compound 7] is lower in inhibition in vivo at 0.25 mg/kg: 19% for the first, 17% for the second.

Same assay, conditions: Rattus norvegicus, po, p.os. 0.25 mg/kg, 6 h

Going from `O=C(NC1CCCCC1)NS(=O)(=O)c1ccc(CCNC(=O)n2cccn2)cc1` [compound 1] to `Cc1cn(C(=O)NCCc2ccc(S(=O)(=O)NC(=O)NC3CCCCC3)cc2)nc1C` [compound 7], the inhibition in vivo at 0.25 mg/kg rises from 0% to 11%.

Same assay, conditions: Rattus norvegicus, po, p.os. 0.5 mg/kg, 1 h

First: O=C(NC1CCCCC1)NS(=O)(=O)c1ccc(CCNC(=O)n2cccn2)cc1 [compound 1]
Second: Cc1cn(C(=O)NCCc2ccc(S(=O)(=O)NC(=O)NC3CCCCC3)cc2)nc1C [compound 7]
The inhibition in vivo at 0.5 mg/kg of the first is higher: 21% for the first, 19% for the second.

With `CCCCNC(=O)NS(=O)(=O)c1ccc(CCNC(=O)n2ccc(C)n2)cc1` [compound 21] the inhibition in vivo at 0.5 mg/kg was 6%.

Same assay, conditions: Rattus norvegicus, po, p.os. 0.5 mg/kg, 3 h

Going from `O=C(NC1CCCCC1)NS(=O)(=O)c1ccc(CCNC(=O)n2cccn2)cc1` [compound 1] to `Cc1cn(C(=O)NCCc2ccc(S(=O)(=O)NC(=O)NC3CCCCC3)cc2)nc1C` [compound 7], the inhibition in vivo at 0.5 mg/kg rises from 19% to 29%.

Work on `CCCCNC(=O)NS(=O)(=O)c1ccc(CCNC(=O)n2ccc(C)n2)cc1` [compound 21] yielded an inhibition in vivo at 0.5 mg/kg of 22%.

Same assay, conditions: Rattus norvegicus, po, p.os. 0.5 mg/kg, 6 h

First: O=C(NC1CCCCC1)NS(=O)(=O)c1ccc(CCNC(=O)n2cccn2)cc1 [compound 1]
Second: Cc1cn(C(=O)NCCc2ccc(S(=O)(=O)NC(=O)NC3CCCCC3)cc2)nc1C [compound 7]
The inhibition in vivo at 0.5 mg/kg of the first is lower: 11% for the first, 20% for the second.

`CCCCNC(=O)NS(=O)(=O)c1ccc(CCNC(=O)n2ccc(C)n2)cc1` [compound 21] was tested, and the inhibition in vivo at 0.5 mg/kg was 29%.

Same assay, conditions: Rattus norvegicus, po, p.os. 1 mg/kg, 1 h

Compared with `O=C(NC1CCCCC1)NS(=O)(=O)c1ccc(CCNC(=O)n2cccn2)cc1` [compound 1], `CCc1cnn(C(=O)NCCc2ccc(S(=O)(=O)NC(=O)NC3CCCCC3)cc2)c1` [compound 4] is higher in inhibition in vivo at 1 mg/kg: 27% for the first, 28% for the second.

With `CCCCNC(=O)NS(=O)(=O)c1ccc(CCNC(=O)n2ccc(C)n2)cc1` [compound 21] the inhibition in vivo at 1 mg/kg was 23%.

Same assay, conditions: Rattus norvegicus, po, p.os. 1 mg/kg, 3 h

Going from `O=C(NC1CCCCC1)NS(=O)(=O)c1ccc(CCNC(=O)n2cccn2)cc1` [compound 1] to `CCc1cnn(C(=O)NCCc2ccc(S(=O)(=O)NC(=O)NC3CCCCC3)cc2)c1` [compound 4], the inhibition in vivo at 1 mg/kg falls from 27% to 4%.

`CCCCNC(=O)NS(=O)(=O)c1ccc(CCNC(=O)n2ccc(C)n2)cc1` [compound 21] gave an inhibition in vivo at 1 mg/kg of 23%.

Same assay, conditions: Rattus norvegicus, po, p.os. 1 mg/kg, 6 h

Going from `O=C(NC1CCCCC1)NS(=O)(=O)c1ccc(CCNC(=O)n2cccn2)cc1` [compound 1] to `CCc1cnn(C(=O)NCCc2ccc(S(=O)(=O)NC(=O)NC3CCCCC3)cc2)c1` [compound 4], the inhibition in vivo at 1 mg/kg falls from 14% to 0%.

In the case of `CCCCNC(=O)NS(=O)(=O)c1ccc(CCNC(=O)n2ccc(C)n2)cc1` [compound 21], the inhibition in vivo at 1 mg/kg is reported as 22%.

Same assay, conditions: Rattus norvegicus, po, p.os. 2 mg/kg, 1 h

Going from `O=C(NC1CCCCC1)NS(=O)(=O)c1ccc(CCNC(=O)n2cccn2)cc1` [compound 1] to `CCc1cnn(C(=O)NCCc2ccc(S(=O)(=O)NC(=O)NC3CCCCC3)cc2)c1` [compound 4], the inhibition in vivo at 2 mg/kg rises from 23% to 46%.

`Cc1cn(C(=O)NCCc2ccc(S(=O)(=O)NC(=O)NC3CCCCC3)cc2)nc1C` [compound 7] was tested, and the inhibition in vivo at 2 mg/kg was 18%.

Same assay, conditions: Rattus norvegicus, po, p.os. 2 mg/kg, 3 h

First: O=C(NC1CCCCC1)NS(=O)(=O)c1ccc(CCNC(=O)n2cccn2)cc1 [compound 1]
Second: CCc1cnn(C(=O)NCCc2ccc(S(=O)(=O)NC(=O)NC3CCCCC3)cc2)c1 [compound 4]
The inhibition in vivo at 2 mg/kg of the first is higher: 34% for the first, 18% for the second.

Compound `Cc1cn(C(=O)NCCc2ccc(S(=O)(=O)NC(=O)NC3CCCCC3)cc2)nc1C` [compound 7] has an inhibition in vivo at 2 mg/kg of 24%.

Same assay, conditions: Rattus norvegicus, po, p.os. 2 mg/kg, 6 h

Compared with `O=C(NC1CCCCC1)NS(=O)(=O)c1ccc(CCNC(=O)n2cccn2)cc1` [compound 1], `CCc1cnn(C(=O)NCCc2ccc(S(=O)(=O)NC(=O)NC3CCCCC3)cc2)c1` [compound 4] is lower in inhibition in vivo at 2 mg/kg: 11% for the first, 1% for the second.

In the case of `Cc1cn(C(=O)NCCc2ccc(S(=O)(=O)NC(=O)NC3CCCCC3)cc2)nc1C` [compound 7], the inhibition in vivo at 2 mg/kg is reported as 19%.

Same assay, conditions: Rattus norvegicus, po, p.os. 4 mg/kg, 1 h

Compared with `O=C(NC1CCCCC1)NS(=O)(=O)c1ccc(CCNC(=O)n2cccn2)cc1` [compound 1], `CCc1cnn(C(=O)NCCc2ccc(S(=O)(=O)NC(=O)NC3CCCCC3)cc2)c1` [compound 4] is higher in inhibition in vivo at 4 mg/kg: 19% for the first, 40% for the second.

Same assay, conditions: Rattus norvegicus, po, p.os. 4 mg/kg, 3 h

Compared with `O=C(NC1CCCCC1)NS(=O)(=O)c1ccc(CCNC(=O)n2cccn2)cc1` [compound 1], `CCc1cnn(C(=O)NCCc2ccc(S(=O)(=O)NC(=O)NC3CCCCC3)cc2)c1` [compound 4] is lower in inhibition in vivo at 4 mg/kg: 37% for the first, 32% for the second.

Same assay, conditions: Rattus norvegicus, po, p.os. 5 mg/kg, 1 h

`CCCCNC(=O)NS(=O)(=O)c1ccc(CCNC(=O)n2ccc(C)n2)cc1` [compound 21] gave an inhibition in vivo at 5 mg/kg of 22%.

Same assay, conditions: Rattus norvegicus, po, p.os. 5 mg/kg, 3 h

In the case of `CCCCNC(=O)NS(=O)(=O)c1ccc(CCNC(=O)n2ccc(C)n2)cc1` [compound 21], the inhibition in vivo at 5 mg/kg is reported as 38%.

Same assay, conditions: Rattus norvegicus, po, p.os. 5 mg/kg, 6 h

In the case of `CCCCNC(=O)NS(=O)(=O)c1ccc(CCNC(=O)n2ccc(C)n2)cc1` [compound 21], the inhibition in vivo at 5 mg/kg is reported as 43%.

Same assay, conditions: Rattus norvegicus, po, p.os. 10 mg/kg, 1 h

First: O=C(NC1CCCCC1)NS(=O)(=O)c1ccc(CCNC(=O)n2cccn2)cc1 [compound 1]
Second: CCc1cnn(C(=O)NCCc2ccc(S(=O)(=O)NC(=O)NC3CCCCC3)cc2)c1 [compound 4]
The inhibition in vivo at 10 mg/kg of the first is lower: 50% for the first, 55% for the second.

Compared with `Cc1cn(C(=O)NCCc2ccc(S(=O)(=O)NC(=O)NC3CCCCC3)cc2)nc1C` [compound 7], `CCCCNC(=O)NS(=O)(=O)c1ccc(CCNC(=O)n2ccc(C)n2)cc1` [compound 21] is higher in inhibition in vivo at 10 mg/kg: 37% for the first, 55% for the second.

Same assay, conditions: Rattus norvegicus, po, p.os. 10 mg/kg, 3 h

First: O=C(NC1CCCCC1)NS(=O)(=O)c1ccc(CCNC(=O)n2cccn2)cc1 [compound 1]
Second: CCc1cnn(C(=O)NCCc2ccc(S(=O)(=O)NC(=O)NC3CCCCC3)cc2)c1 [compound 4]
The inhibition in vivo at 10 mg/kg of the first is higher: 52% for the first, 39% for the second.

First: Cc1cn(C(=O)NCCc2ccc(S(=O)(=O)NC(=O)NC3CCCCC3)cc2)nc1C [compound 7]
Second: CCCCNC(=O)NS(=O)(=O)c1ccc(CCNC(=O)n2ccc(C)n2)cc1 [compound 21]
The inhibition in vivo at 10 mg/kg of the first is higher: 54% for the first, 53% for the second.

Same assay, conditions: Rattus norvegicus, po, p.os. 10 mg/kg, 6 h

Compared with `O=C(NC1CCCCC1)NS(=O)(=O)c1ccc(CCNC(=O)n2cccn2)cc1` [compound 1], `CCc1cnn(C(=O)NCCc2ccc(S(=O)(=O)NC(=O)NC3CCCCC3)cc2)c1` [compound 4] is lower in inhibition in vivo at 10 mg/kg: 29% for the first, 25% for the second.

Compared with `Cc1cn(C(=O)NCCc2ccc(S(=O)(=O)NC(=O)NC3CCCCC3)cc2)nc1C` [compound 7], `CCCCNC(=O)NS(=O)(=O)c1ccc(CCNC(=O)n2ccc(C)n2)cc1` [compound 21] is higher in inhibition in vivo at 10 mg/kg: 26% for the first, 56% for the second.

Same assay, conditions: Rattus norvegicus, po, p.os. 20 mg/kg, 1 h

`CCCCNC(=O)NS(=O)(=O)c1ccc(CCNC(=O)n2ccc(C)n2)cc1` [compound 21] was tested, and the inhibition in vivo at 20 mg/kg was 50%.

Same assay, conditions: Rattus norvegicus, po, p.os. 20 mg/kg, 3 h

`CCCCNC(=O)NS(=O)(=O)c1ccc(CCNC(=O)n2ccc(C)n2)cc1` [compound 21] gave an inhibition in vivo at 20 mg/kg of 55%.

Same assay, conditions: Rattus norvegicus, po, p.os. 20 mg/kg, 6 h

Work on `CCCCNC(=O)NS(=O)(=O)c1ccc(CCNC(=O)n2ccc(C)n2)cc1` [compound 21] yielded an inhibition in vivo at 20 mg/kg of 56%.

Same assay, conditions: Rattus norvegicus, po, p.os., Table 1

`O=C(NC1CCCCC1)NS(=O)(=O)c1ccc(CCNC(=O)n2cccn2)cc1` [compound 1] and `CCc1cnn(C(=O)NCCc2ccc(S(=O)(=O)NC(=O)NC3CCCCC3)cc2)c1` [compound 4] are within 1.5-fold of each other in ED50: 1.8 mg/kg for the first, 1.6 mg/kg for the second.

Work on `Cc1cn(C(=O)NCCc2ccc(S(=O)(=O)NC(=O)NC3CCCCC3)cc2)nc1C` [compound 7] yielded an ED50 of 3.3 mg/kg.
